Activity calls are given as the source filed them. The rule behind the calls is not given here.
System: Mus musculus
Assay: Antidepressant activity in ICR mouse assessed as immobility time at 20 mg/kg, ip by tail suspension test
Type: functional, organism-based
Design: dose 20 mg/kg

## CN(C)CCCN1c2ccccc2CCc2ccccc21
  Activity: Active

— ChEMBL document CHEMBL2434905, “2-Amino-6-chloro-3,4-dihydroquinazoline: A novel 5-HT3 receptor antagonist with antidepressant character” (Bioorg Med Chem Lett, 2013)
